Patent US12692253B2, “Antimicrobial compounds and methods” (Curza Global, LLC, priority 2019, dated 2026)
Where two headings read alike, the source gives them in different places.

Experiments:
[1] = target: Rabbit Reticulocyte Lysate (eukaryotic protein synthesis); test: Rabbit reticulocyte lysate luciferase assay (inhibition of eukaryotic protein synthesis); format: biochemical; conditions: read-out: Rabbit reticulocyte IC50 (μM/% inhib.)
In short: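 In vitro translation of luciferase control RNA in nuclease-treated rabbit reticulocyte lysate with amino acid mixture, compounds in 2-fold serial dilution, 90 minutes at 30° C. Luminescence read after luciferase reagent; % inhibition relative to water no-inhibitor controls, with no-RNA background wells.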

[2] = system: E. coli S30 extract (bacterial protein synthesis); test: E. coli S30 extract coupled transcription-translation luciferase assay (inhibition of bacterial protein synthesis); format: biochemical; conditions: read-out: S30 IC50 (μM/% inhib.)
In short: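 Coupled transcription-translation in E. coli S30 circular-DNA extract expressing luciferase from pBESTluc, with 8-point 2-fold compound dilutions; 1 hour at 37 °C, stopped at 4 °C. Luminescence read; % inhibition versus no-inhibitor wells, no-DNA wells as background.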

P. aeruginosa (Pa) = test: Broth microdilution minimum inhibitory concentration (MIC), CLSI; format: cell-based; conditions: Pseudomonas aeruginosa, read-out: Pa MIC + bicarb
In short: (§1)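 Two-fold serial dilutions in CAMHB, optionally with sodium bicarbonate (6.25 or 25 mM final) or heat-inactivated human serum (0-50%), 8 concentrations, triplicate. Inoculum 5×10^4 CFU/well from log-phase cultures grown at 35±2 °C to 0.5 McFarland.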

E. faecalis (Ef) = test: as above; format: cell-based; conditions: Enterococcus faecalis, read-out: Ef + bicarb MIC
In short: as §1

E. coli (Ec) = test: as above; format: cell-based; conditions: Escherichia coli, read-out: E. coli + bicarb MIC
In short: as §1

A. baumannn (Ab) = test: as above; format: cell-based; conditions: read-out: Ab + bicarb MIC
In short: as §1

S. aureus (Sa) = test: as above; format: cell-based; conditions: Staphylococcus aureus, read-out: Sa + bicarb MIC
In short: as §1

[3] = growth medium with sodium bicarbonate
[4] = A. baumannn, growth medium with sodium bicarbonate
[5] = class by IC50 or % inhibition @ 1 μM
[6] = growth medium supplemented with sodium bicarbonate

SMILES	IC50 ([1]; % inhibition @ 1 μM)	IC50 ([2]; % inhibition @ 1 μM)	MIC (P. aeruginosa (Pa); [3])	MIC (E. faecalis (Ef); [3])	MIC (E. coli (Ec); [3])	MIC (A. baumannn (Ab); [4])	MIC (S. aureus (Sa); [3])	IC50 [1, 5]	IC50 [2, 5]	MIC (P. aeruginosa (Pa); [6])	MIC (E. faecalis (Ef); [6])	MIC (E. coli (Ec); [6])	MIC (A. baumannn (Ab); Acinetobacter baumannii)	MIC (S. aureus (Sa); [6])
CC(Cc1ccc(-n2ccc(NC(=O)N3CCN(C(=O)C[C@H](C)N)CC3)nc2=O)cc1)N1C[C@@H]2[C@@H](CN)[C@@H]2C1 (some centres unmarked) [Compound 231]	≥ 1 µM	≥ 1 µM	> 32 µg/mL	> 32 µg/mL	< 8 µg/mL	> 32 µg/mL	< 8 µg/mL							
COc1cc(-n2ccc(NC(=O)N3CCN(C(=O)C(C)(C)N)CC3)nc2=O)ccc1CCN1CC2CC2(CN)C1 (centres unmarked) [Compound 133]								≥ 1 µM	< 0.5 µM	> 32 µg/mL	8 to 32 µg/mL	< 8 µg/mL	> 32 µg/mL	8 to 32 µg/mL
Cc1cc(-n2ccc(NC(=O)N3CCN(C(=O)C(C)(C)N)CC3)nc2=O)ccc1CCN1CC2CC2(CN)C1 (centres unmarked) [Compound 130]								≥ 1 µM	< 0.5 µM	8 to 32 µg/mL	< 8 µg/mL	< 8 µg/mL	8 to 32 µg/mL	< 8 µg/mL
CCN(C(C)Cc1ccc(-n2ccc(NC(=O)N3CCN(C(=O)C(C)(C)N)CC3)nc2=O)cc1)C12CC(CN)(C1)C2 (centres unmarked) [Compound 201]	≥ 1 µM	< 0.5 µM	> 32 µg/mL	< 8 µg/mL	< 8 µg/mL	> 32 µg/mL	< 8 µg/mL							
CC(COc1ccc(-n2ccc(NC(=O)N3CCN(C(=O)C(C)(C)N)CC3)nc2=O)cc1)N1CC2CC2(CN)C1 (centres unmarked) [Compound 189]	≥ 1 µM	< 0.5 µM	> 32 µg/mL	< 8 µg/mL	< 8 µg/mL	> 32 µg/mL	< 8 µg/mL							
NC[C@@H]1[C@H]2CN(CCc3ccc(-n4ccc(NC(=O)N5CCC6(CC5)CNC6)nc4=O)cc3)C[C@@H]12 [Compound 147]								≥ 1 µM	≥ 1 µM	> 32 µg/mL	> 32 µg/mL	< 8 µg/mL	> 32 µg/mL	< 8 µg/mL
CC(C)(N)C(=O)N1CCN(C(=O)Nc2ccn(-c3ccc(CN4C[C@@H]5[C@@H](N)[C@@H]5[C@H]4CO)cc3)c(=O)n2)CC1 [Compound 66]								≥ 1 µM	0.5 to 1 µM	> 32 µg/mL	> 32 µg/mL	< 8 µg/mL	> 32 µg/mL	8 to 32 µg/mL
CC(Cc1ccc(-n2ccc(NC(=O)N3CCN(C(=O)C4(N)CCC4)CC3)nc2=O)cc1)N1C[C@@H]2[C@@H](CN)[C@@H]2C1 (some centres unmarked) [Compound 229]	≥ 1 µM	≥ 1 µM	> 32 µg/mL	> 32 µg/mL	8 to 32 µg/mL	> 32 µg/mL	> 32 µg/mL							
NC[C@@H]1[C@H]2CN(CCc3ccc(-n4ccc(NC(=O)N5CC6(CCC6N)C5)nc4=O)cc3)C[C@@H]12 (some centres unmarked) [Compound 148]								≥ 1 µM	≥ 1 µM	> 32 µg/mL	> 32 µg/mL	> 32 µg/mL	> 32 µg/mL	> 32 µg/mL
CC(C)(N)C(=O)N1CCN(C(=O)Nc2ccn(-c3ccc(CN4CCC5(CCNC5)C4)cc3)c(=O)n2)CC1 (centres unmarked) [Compound 80]								≥ 1 µM	< 0.5 µM	> 32 µg/mL	> 32 µg/mL	< 8 µg/mL	> 32 µg/mL	< 8 µg/mL
CCC(Cc1ccc(-n2ccc(NC(=O)N3CCN(C(=O)C(C)(C)N)CC3)nc2=O)cc1F)N1C[C@@H]2[C@@H](CN)[C@@H]2C1 (some centres unmarked) [Compound 154]								≥ 1 µM	< 0.5 µM	< 8 µg/mL	< 8 µg/mL	< 8 µg/mL	< 8 µg/mL	< 8 µg/mL
CC(C)(N)C(=O)N1CCN(C(=O)Nc2ccn(-c3cccc(CCN4CC5(CC(N)C5)C4)c3)c(=O)n2)CC1 [Compound 109]								≥ 1 µM	< 0.5 µM	> 32 µg/mL	> 32 µg/mL	< 8 µg/mL	> 32 µg/mL	< 8 µg/mL
CCN(Cc1ccc(-n2ccc(NC(=O)N3CCN(C(=O)C(C)(C)N)CC3)nc2=O)cc1)C12CC(N)(C1)C2 [Compound 170]	≥ 1 µM	< 0.5 µM	> 32 µg/mL	> 32 µg/mL	< 8 µg/mL	> 32 µg/mL	> 32 µg/mL							
CC(Cc1ccc(-n2ccc(NC(=O)N3CCN(C(=O)[C@@](C)(N)CO)CC3)nc2=O)cc1)N1CCC2(CC1)CC(N)C2 (some centres unmarked) [Compound 115]								≥ 1 µM	< 0.5 µM	> 32 µg/mL	< 8 µg/mL	< 8 µg/mL	> 32 µg/mL	< 8 µg/mL
